# Test results reported in patent US20100210649A1, “PYRIDAZINONES AND FURAN-CONTAINING COMPOUNDS” (Sloan-Kettering Institute for Cancer Research, priority 2006, published 2010).
# Where two headings read alike, the source gives them in different places.
# Legend:
# in vitro = conditions: human
# H1650 = assay: Non Small Cell Lung Cancer proliferation assay (Alamar Blue reduction), H1650; format: cell-based, human; conditions: Homo sapiens
# How it was run: (§1)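 Compounds are tested at 1% DMSO final concentration against adherent NSCLC cells for 48 h at 37° C, with cytotoxicity measured by Alamar Blue reduction after a further 48 h incubation.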
# H2030 = assay: Non Small Cell Lung Cancer proliferation assay (Alamar Blue reduction), H2030; format: cell-based, human; conditions: Homo sapiens
# How it was run: as §1
# A549 = assay: Dose response study (Alamar Blue), A549; format: cell-based; conditions: Homo sapiens; A549; 12 point doubling dilution 10 uM to 5 nM; 48 h treatment, alamar blue additional 48 h; read-out: IC50 A549
# Experimental: (§2) Dose response studies against 34 compounds from the pyridazinone and phenylfuran-carboxamide class were conducted. […] In addition, Tarceva was included in these dose response studies.
# (§3) The dose response studies were done with the following standard procedure. First, the cells were counted and dispensed at 250 cells/well into 384-well microplates with compound. The cells were incubated for 48 hours at 37 C to complete treatment, and then alamar blue was added for an additional 48 hours. Finally, alamar blue reduction was measured and the data was loaded into ORIS, our data screening acquisition platform.
# H2122 = assay: Dose response study (Alamar Blue), H2122; format: cell-based; conditions: Homo sapiens, NCI-H2122; H2122; 12 point doubling dilution 10 uM to 5 nM; 48 h treatment, alamar blue additional 48 h; read-out: IC50 H2122
# Experimental: as §2, §3
# H23 = assay: Dose response study (Alamar Blue), H23; format: cell-based; conditions: Homo sapiens, NCI-H23; H23; 12 point doubling dilution 10 uM to 5 nM; 48 h treatment, alamar blue additional 48 h; read-out: IC50 H23
# Experimental: as §2, §3
# H2444 = assay: Dose response study (Alamar Blue), H2444; format: cell-based; conditions: Homo sapiens, NCI-H2444; H2444; 12 point doubling dilution 10 uM to 5 nM; 48 h treatment, alamar blue additional 48 h; read-out: IC50 H2444
# Experimental: as §2, §3
# H820 = assay: Dose response study (Alamar Blue), H820; format: cell-based; conditions: Homo sapiens, NCI-H820; H820; 12 point doubling dilution 10 uM to 5 nM; 48 h treatment, alamar blue additional 48 h; read-out: IC50 H820
# Experimental: as §2, §3
# H358 = assay: Non Small Cell Lung Cancer proliferation assay (Alamar Blue reduction), H358; format: cell-based; conditions: Homo sapiens, NCI-H358
# How it was run: as §1
# H1975 = assay: Non Small Cell Lung Cancer proliferation assay (Alamar Blue reduction), H1975; format: cell-based, human; conditions: Homo sapiens
# How it was run: as §1
# [1] = NCI-H1650, 48 h, H1650, 12 point doubling dilution 10 uM to 5 nM, 48 h treatment, alamar blue additional 48 h, read-out: IC50 H1650
# [2] = NCI-H1650, dose response 10 M to 5 nM, IC50, read-out: Dose Response (uM) H1650
# [3] = NCI-H2030, 48 h, H2030, 12 point doubling dilution 10 uM to 5 nM, 48 h treatment, alamar blue additional 48 h, read-out: IC50 H2030
# [4] = H358, 12 point doubling dilution 10 uM to 5 nM, 48 h treatment, alamar blue additional 48 h, read-out: IC50 H358
# [5] = read-out: Dose Response (uM) H358
# [6] = NCI-H1975, 48 h, H1975, 12 point doubling dilution 10 uM to 5 nM, 48 h treatment, alamar blue additional 48 h, read-out: IC50 H1975
# [7] = NCI-H1975, dose response 10 M to 5 nM, IC50, read-out: Dose Response (uM) H1975
# [8] = NCI-H2030, dose response 10 M to 5 nM, IC50, read-out: Dose Response (uM) H2030
SMILES,IC50 (H1650; [1]),IC50 (H1650; [2]),IC50 (H2030; [3]),IC50 (A549),IC50 (H2122),IC50 (H2444),IC50 (H820),IC50 (H358; [4]),IC50 (H358; [5]),IC50 (H1975; [6]),IC50 (H1975; [7]),IC50 (H2030; [8]),IC50 at 72 h (in vitro; CytoTox (uM) NHBE),IC50 at 72 h (in vitro; CytoTox (uM) WI-38),IC50 (H23),"inhibition at 10 µM (H1650; NCI-H1650, primary screening, 10 μM compound in 1% DMSO (v/v), read-out: percentage inhibition H1650)","inhibition at 10 µM (H2030; NCI-H2030, primary screening, 10 μM compound in 1% DMSO (v/v), read-out: percentage inhibition H2030)","inhibition at 10 µM (H1975; NCI-H1975, primary screening, 10 μM compound in 1% DMSO (v/v), read-out: percentage inhibition H1975)"
O=c1c(Br)c(Br)cnn1-c1cccc(C(F)(F)F)c1 [compound 267072],2.09 µM,0.54 µM,0.85 µM,3.42 µM,4.61 µM,1.05 µM,0.82 µM,0.85 µM,0.15 µM,0.93 µM,0.2 µM,,1.43 µM,2.17 µM,0.84 µM,,,
O=c1c(Cl)c(Cl)cnn1-c1cccc(C(F)(F)F)c1 [compound 176729],0.8 µM,1.44 µM,0.32 µM,1.19 µM,1.5 µM,0.21 µM,0.28 µM,0.32 µM,0.12 µM,0.31 µM,0.16 µM,0.34 µM,2.76 µM,3.42 µM,0.23 µM,100%,-3%,102%
Cc1nc2cc(-n3ncc(Cl)c(Cl)c3=O)ccc2s1 [compound 267067],> 10 µM,4.47 µM,9.19 µM,> 10 µM,> 10 µM,6.92 µM,8.25 µM,> 10 µM,1.38 µM,> 10 µM,0.45 µM,3.04 µM,> 10 µM,> 10 µM,5.68 µM,,,
O=c1c(Cl)c(Cl)cnn1-c1ccc(Cl)cc1Cl [compound 267077],> 10 µM,0.56 µM,3.55 µM,> 10 µM,> 10 µM,4.68 µM,2.68 µM,3.22 µM,0.14 µM,2.08 µM,0.05 µM,1.27 µM,1.1 µM,1.74 µM,1.72 µM,,,
O=c1c(Br)c(Br)cnn1-c1ccccc1 [compound 257015],0.92 µM,1.14 µM,0.31 µM,1.2 µM,1.26 µM,0.3 µM,0.22 µM,0.43 µM,0.16 µM,0.32 µM,0.16 µM,0.39 µM,2.38 µM,3.03 µM,0.23 µM,,,
O=c1c(Br)c(Br)cnn1-c1ccccn1 [compound 267073],0.79 µM,0.8 µM,0.12 µM,0.31 µM,0.78 µM,0.13 µM,0.1 µM,0.14 µM,0.07 µM,0.16 µM,0.09 µM,0.76 µM,1.33 µM,0.89 µM,0.07 µM,,,
Cc1cccc(-n2ncc(Br)c(Br)c2=O)c1 [compound 267071],1.1 µM,0.74 µM,0.37 µM,1.62 µM,1.26 µM,0.31 µM,0.27 µM,0.4 µM,0.21 µM,0.36 µM,0.22 µM,1.22 µM,1.61 µM,2.61 µM,0.26 µM,,,
NCCCOc1cccc(-n2ncc(Br)c(Br)c2=O)c1 [compound 273634],0.51 µM,1.36 µM,0.47 µM,1.65 µM,1.42 µM,0.4 µM,0.29 µM,0.69 µM,0.24 µM,0.41 µM,0.44 µM,0.67 µM,2.94 µM,4.53 µM,0.38 µM,,,
COc1cccc(-n2ncc(Br)c(Br)c2=O)c1 [compound 267083],1.08 µM,1.06 µM,0.26 µM,1.07 µM,1.15 µM,0.28 µM,0.2 µM,0.3 µM,0.13 µM,0.24 µM,0.23 µM,0.57 µM,1.85 µM,2.6 µM,0.21 µM,,,
O=c1c(Cl)c(Cl)cnn1Cc1ccccc1 [compound 267069],> 10 µM,> 10 µM,4.01 µM,7.39 µM,9.04 µM,4.13 µM,2.57 µM,6.66 µM,4.76 µM,3.6 µM,2.16 µM,6.83 µM,7.32 µM,> 10 µM,2.53 µM,,,

# Now from value to compound, other results behind:
IC50 (H1650; [1]),IC50 (H1650; [2]),IC50 (H2030; [3]),IC50 (A549),IC50 (H2122),IC50 (H2444),IC50 (H820),IC50 (H358; [4]),IC50 (H358; [5]),IC50 (H1975; [6]),IC50 (H1975; [7]),IC50 (H2030; [8]),SMILES,IC50 at 72 h (in vitro; CytoTox (uM) NHBE),IC50 at 72 h (in vitro; CytoTox (uM) WI-38),IC50 (H23),"inhibition at 10 µM (H1650; NCI-H1650, primary screening, 10 μM compound in 1% DMSO (v/v), read-out: percentage inhibition H1650)","inhibition at 10 µM (H2030; NCI-H2030, primary screening, 10 μM compound in 1% DMSO (v/v), read-out: percentage inhibition H2030)","inhibition at 10 µM (H1975; NCI-H1975, primary screening, 10 μM compound in 1% DMSO (v/v), read-out: percentage inhibition H1975)"
4.15 µM,2.4 µM,0.8 µM,4.2 µM,4.38 µM,0.82 µM,0.67 µM,0.79 µM,0.24 µM,0.89 µM,0.29 µM,0.53 µM,Cc1ccc(-n2ncc(Cl)c(Cl)c2=O)cc1C [compound 257019],3.24 µM,7.02 µM,0.69 µM,,,
> 10 µM,> 10 µM,> 10 µM,> 10 µM,> 10 µM,6.37 µM,> 10 µM,> 10 µM,1.24 µM,> 10 µM,1.89 µM,> 10 µM,Cc1cc(-n2ncc(Cl)c(Cl)c2=O)ccc1Cl [compound 267065],> 10 µM,> 10 µM,6.96 µM,,,
> 10 µM,1.69 µM,2.34 µM,7.52 µM,8.72 µM,1.53 µM,2.8 µM,2.81 µM,0.42 µM,2.23 µM,0.19 µM,1.41 µM,O=c1c(Cl)c(Cl)cnn1-c1ccc2c(c1)CCC2 [compound 267066],1.74 µM,5.37 µM,2.04 µM,,,
1.91 µM,2.48 µM,0.54 µM,2.81 µM,2.55 µM,0.43 µM,0.45 µM,0.66 µM,0.24 µM,0.47 µM,0.46 µM,0.72 µM,CCc1cccc(-n2ncc(Cl)c(Cl)c2=O)c1 [compound 267062],1.85 µM,6.44 µM,0.39 µM,,,
> 10 µM,2.83 µM,7.8 µM,> 10 µM,> 10 µM,6.41 µM,6.72 µM,7.65 µM,0.47 µM,7.58 µM,0.71 µM,0.88 µM,Cc1cc(-n2ncc(Cl)c(Cl)c2=O)ccc1Br [compound 267064],4.04 µM,> 10 µM,5.75 µM,,,
2.26 µM,2.33 µM,0.47 µM,1.93 µM,1.59 µM,0.41 µM,0.32 µM,0.78 µM,0.43 µM,0.37 µM,0.25 µM,1.23 µM,O=c1c(Cl)c(Cl)cnn1-c1ccc2c(c1)OCCO2 [compound 267068],1.56 µM,3.96 µM,0.29 µM,,,
